Laboratory results from PubChem BioAssay AID1259407 (Chemical Carcinogenesis Research Information System (CCRIS), 2018).
The source made the active and inactive calls. The rule behind the calls is not given here.

Tested on: CCRIS mutagenicity, Ames/micronucleus/aberration tests
Test: CCRIS mutagenicity studies
[1] = Test System: AMES SALMONELLA TYPHIMURIUM, Strain/Indicator: TA100, Metabolic Activation: NONE, Method: STANDARD PLATE
[2] = Test System: AMES SALMONELLA TYPHIMURIUM, Strain/Indicator: TA98, Metabolic Activation: NONE, Method: STANDARD PLATE
[3] = Test System: AMES SALMONELLA TYPHIMURIUM, Strain/Indicator: TA98, Metabolic Activation: RAT, LIVER, S-9, AROCLOR, Method: STANDARD PLATE
[4] = Test System: AMES SALMONELLA TYPHIMURIUM, Strain/Indicator: TA100, Metabolic Activation: RAT, LIVER, S-9, AROCLOR, Method: STANDARD PLATE
[5] = Test System: AMES SALMONELLA TYPHIMURIUM, Strain/Indicator: TA98, Metabolic Activation: NONE, Method: PREINCUBATION
[6] = Test System: AMES SALMONELLA TYPHIMURIUM, Strain/Indicator: TA100, Metabolic Activation: NONE, Method: PREINCUBATION
[7] = Test System: AMES SALMONELLA TYPHIMURIUM, Strain/Indicator: TA1535, Metabolic Activation: NONE, Method: PREINCUBATION
[8] = Test System: AMES SALMONELLA TYPHIMURIUM, Strain/Indicator: TA1537, Metabolic Activation: NONE, Method: PREINCUBATION
[9] = Test System: AMES SALMONELLA TYPHIMURIUM, Strain/Indicator: TA98, Metabolic Activation: HAMSTER, LIVER, S-9, AROCLOR 1254 (10%), Method: PREINCUBATION
[10] = Test System: AMES SALMONELLA TYPHIMURIUM, Strain/Indicator: TA98, Metabolic Activation: RAT, LIVER, S-9, AROCLOR 1254 (10%), Method: PREINCUBATION
[11] = Test System: AMES SALMONELLA TYPHIMURIUM, Strain/Indicator: TA100, Metabolic Activation: HAMSTER, LIVER, S-9, AROCLOR 1254 (10%), Method: PREINCUBATION
[12] = Test System: AMES SALMONELLA TYPHIMURIUM, Strain/Indicator: TA100, Metabolic Activation: RAT, LIVER, S-9, AROCLOR 1254 (10%), Method: PREINCUBATION
[13] = Test System: AMES SALMONELLA TYPHIMURIUM, Strain/Indicator: TA1535, Metabolic Activation: HAMSTER, LIVER, S-9, AROCLOR 1254 (10%), Method: PREINCUBATION
[14] = Test System: AMES SALMONELLA TYPHIMURIUM, Strain/Indicator: TA1535, Metabolic Activation: RAT, LIVER, S-9, AROCLOR 1254 (10%), Method: PREINCUBATION
[15] = Test System: AMES SALMONELLA TYPHIMURIUM, Strain/Indicator: TA1537, Metabolic Activation: HAMSTER, LIVER, S-9, AROCLOR 1254 (10%), Method: PREINCUBATION
[16] = Test System: AMES SALMONELLA TYPHIMURIUM, Strain/Indicator: TA1537, Metabolic Activation: RAT, LIVER, S-9, AROCLOR 1254 (10%), Method: PREINCUBATION

With O=[N+]([O-])c1ccc(CN2C3c4ccccc4-c4ccccc4C32)cc1 (stereo not given) the mutagenic call [1] was “active; positive”.

With CC(=O)Nc1ccc2c3c(cccc13)-c1ccc(O)cc1-2 the mutagenic call [2] was “active; positive” and the mutagenic call (Test System: AMES SALMONELLA TYPHIMURIUM, Strain/Indicator: TA98, Metabolic Activation: RAT, LIVER, S-9, AROCLOR 1254, Method: STANDARD PLATE) was “active; positive”.

With Cc1ccc(C(O)(P(=O)(O)O)P(=O)(O)O)cc1N(CCCl)CCCl the mutagenic call [2] was “inactive; negative”, the mutagenic call [3] was “inactive; negative” and the mutagenic call [1] was “inactive; negative”. For the same compound, the mutagenic call [4] was “inactive; negative”, the mutagenic call (Test System: AMES SALMONELLA TYPHIMURIUM, Strain/Indicator: TA1535, Metabolic Activation: NONE, Method: STANDARD PLATE) was “inactive; negative” and the mutagenic call (Test System: AMES SALMONELLA TYPHIMURIUM, Strain/Indicator: TA1535, Metabolic Activation: RAT, LIVER, S-9, AROCLOR, Method: STANDARD PLATE) was “active; positive”. For the same compound, the mutagenic call (Test System: AMES SALMONELLA TYPHIMURIUM, Strain/Indicator: TA1537, Metabolic Activation: NONE, Method: STANDARD PLATE) was “inactive; negative”, the mutagenic call (Test System: AMES SALMONELLA TYPHIMURIUM, Strain/Indicator: TA1537, Metabolic Activation: RAT, LIVER, S-9, AROCLOR, Method: STANDARD PLATE) was “inactive; negative” and the mutagenic call (Test System: AMES SALMONELLA TYPHIMURIUM, Strain/Indicator: TA1538, Metabolic Activation: NONE, Method: STANDARD PLATE) was “inactive; negative”. The mutagenic call (Test System: AMES SALMONELLA TYPHIMURIUM, Strain/Indicator: TA1538, Metabolic Activation: RAT, LIVER, S-9, AROCLOR, Method: STANDARD PLATE) was “inactive; negative”.

C=CC1(C)OC(=O)N(c2cc(Cl)cc(Cl)c2)C1=O (stereo not given) was tested, and the mutagenic call (End Point: IN VITRO MICRONUCLEUS, Test System: HUMAN HEPATOMA CELLS HEPG2, Metabolic Activation: NONE) was “inactive; negative; authors report a slight increase but not statistically significant”.

Clc1ccccc1Cl was tested, and the mutagenic call (End Point: IN VITRO CHROMOSOMAL ABERRATIONS, Test System: CHO-LB CELLS, Metabolic Activation: NONE) was “inactive; negative”, the mutagenic call (End Point: IN VITRO CHROMOSOMAL ABERRATIONS, Test System: CHO-LB CELLS, Metabolic Activation: RAT, LIVER, S-9, AROCLOR 1254) was “inactive; negative” and the mutagenic call (Test System: AMES SALMONELLA TYPHIMURIUM, Strain/Indicator: TA98, Metabolic Activation: HAMSTER, LIVER, S-9, AROCLOR 1254, Method: PREINCUBATION) was “inactive; negative”. For the same compound, the mutagenic call [5] was “inactive; negative”, the mutagenic call [2] was “inactive; negative” and the mutagenic call (Test System: AMES SALMONELLA TYPHIMURIUM, Strain/Indicator: TA98, Metabolic Activation: RAT, LIVER, S-9, AROCLOR 1254, Method: PREINCUBATION) was “inactive; negative”. The mutagenic call [3] was “inactive; negative”, the mutagenic call (Test System: AMES SALMONELLA TYPHIMURIUM, Strain/Indicator: TA100, Metabolic Activation: HAMSTER, LIVER, S-9, AROCLOR 1254, Method: PREINCUBATION) was “inactive; negative” and the mutagenic call [6] was “inactive; negative”. The mutagenic call [1] was “inactive; negative”, the mutagenic call (Test System: AMES SALMONELLA TYPHIMURIUM, Strain/Indicator: TA100, Metabolic Activation: RAT, LIVER, S-9, AROCLOR 1254, Method: PREINCUBATION) was “inactive; negative” and the mutagenic call [4] was “inactive; negative”. The mutagenic call (Test System: AMES SALMONELLA TYPHIMURIUM, Strain/Indicator: TA1535, Metabolic Activation: HAMSTER, LIVER, S-9, AROCLOR 1254, Method: PREINCUBATION) was “inactive; negative”, the mutagenic call [7] was “inactive; negative” and the mutagenic call (Test System: AMES SALMONELLA TYPHIMURIUM, Strain/Indicator: TA1535, Metabolic Activation: RAT, LIVER, S-9, AROCLOR 1254, Method: PREINCUBATION) was “inactive; negative”. The mutagenic call (Test System: AMES SALMONELLA TYPHIMURIUM, Strain/Indicator: TA1537, Metabolic Activation: HAMSTER, LIVER, S-9, AROCLOR 1254, Method: PREINCUBATION) was “inactive; negative”, the mutagenic call [8] was “inactive; negative” and the mutagenic call (Test System: AMES SALMONELLA TYPHIMURIUM, Strain/Indicator: TA1537, Metabolic Activation: RAT, LIVER, S-9, AROCLOR 1254, Method: PREINCUBATION) was “inactive; negative”. The mutagenic call (Test System: AMES SALMONELLA TYPHIMURIUM, Strain/Indicator: UTH8413, Metabolic Activation: NONE, Method: STANDARD PLATE) was “inactive; negative”, the mutagenic call (Test System: AMES SALMONELLA TYPHIMURIUM, Strain/Indicator: UTH8413, Metabolic Activation: RAT, LIVER, S-9, AROCLOR, Method: STANDARD PLATE) was “inactive; negative” and the mutagenic call (Test System: AMES SALMONELLA TYPHIMURIUM, Strain/Indicator: UTH8414, Metabolic Activation: NONE, Method: STANDARD PLATE) was “inactive; negative”. The mutagenic call (Test System: AMES SALMONELLA TYPHIMURIUM, Strain/Indicator: UTH8414, Metabolic Activation: RAT, LIVER, S-9, AROCLOR, Method: STANDARD PLATE) was “inactive; negative”.

CC(C)N was tested, and the mutagenic call [9] was “inactive; negative”, the mutagenic call [5] was “inactive; negative” and the mutagenic call [10] was “inactive; negative”. For the same compound, the mutagenic call [11] was “inactive; negative”, the mutagenic call [6] was “inactive; negative” and the mutagenic call [12] was “inactive; negative”. The mutagenic call [13] was “inactive; negative”, the mutagenic call [7] was “inactive; negative” and the mutagenic call [14] was “inactive; negative”. The mutagenic call [15] was “inactive; negative”, the mutagenic call [8] was “inactive; negative” and the mutagenic call [16] was “inactive; negative”. The mutagenic call (Test System: UDS RODENT HEPATOCYTES, Strain/Indicator: THY INCORP (NON-S-PHASE), Metabolic Activation: NONE, Method: LIQUID SCINTILLATION COUNTING) was “inactive; negative”.

In the case of CC(O)CN(CC(C)O)CC(C)O (stereo not given) (tested in a mixture with another compound), the mutagenic call [5] is reported as “inactive; negative”, the mutagenic call (Test System: AMES SALMONELLA TYPHIMURIUM, Strain/Indicator: TA98, Metabolic Activation: RAT LIVER S-9, AROCLOR 1254, 10%, Method: PREINCUBATION) is reported as “inactive; negative” and the mutagenic call [6] is reported as “inactive; negative”. For the same compound, the mutagenic call (Test System: AMES SALMONELLA TYPHIMURIUM, Strain/Indicator: TA100, Metabolic Activation: RAT LIVER S-9, AROCLOR 1254, 10%, Method: PREINCUBATION) was “inactive; negative”, the mutagenic call [7] was “inactive; negative” and the mutagenic call (Test System: AMES SALMONELLA TYPHIMURIUM, Strain/Indicator: TA1535, Metabolic Activation: RAT LIVER S-9, AROCLOR 1254, 10%, Method: PREINCUBATION) was “inactive; negative”. For the same compound, the mutagenic call [8] was “inactive; negative”, the mutagenic call (Test System: AMES SALMONELLA TYPHIMURIUM, Strain/Indicator: TA1537, Metabolic Activation: RAT LIVER S-9, AROCLOR 1254, 10%, Method: PREINCUBATION) was “inactive; negative” and the mutagenic call (Test System: UDS RAT HEPATOCYTES, Strain/Indicator: THYMIDINE INCORPORATION, Metabolic Activation: NONE, Method: AUTORADIOGRAPHY) was “inactive; negative”.

C=C(C)C(=O)OCCC was tested, and the mutagenic call [9] was “inactive; negative”, the mutagenic call [5] was “inactive; negative” and the mutagenic call [10] was “inactive; negative”. The mutagenic call [11] was “inactive; negative”, the mutagenic call [6] was “inactive; negative” and the mutagenic call [12] was “inactive; negative”. The mutagenic call [13] was “inactive; negative”, the mutagenic call [7] was “inactive; negative” and the mutagenic call [14] was “inactive; negative”. For the same compound, the mutagenic call [15] was “inactive; negative”, the mutagenic call [8] was “inactive; negative” and the mutagenic call [16] was “inactive; negative”.
